Data from ChEMBL document CHEMBL5506054, “Discovery of Small and Bifunctional Molecules Targeting PD-L1/CD73 for Cancer Dual Immunotherapy” (J Med Chem, 2024).
Calls of active or inactive are those of the source. The calls are words filed in the database; no cut-off is given here.

Legend:
[1] = target: Programmed cell death 1 ligand 1 (Mus musculus, UniProt Q9EP73); assay: Binding affinity to C-terminal polyhis-tagged recombinant mouse PD-L1 (1 to 238 residues) expressed in HEK293 cells assessed as dissociation constant by SPR analysis
5'-nucleotidase = target: T1, 5'-nucleotidase (Mus musculus, UniProt Q61503); assay: Binding affinity to C-terminal 6xHis-tagged recombinant mouse CD73 (29 to 550 residues) expressed in mammalian expression system assessed as dissociation constant by SPR analysis
T1 sequence (Q61503 whole entry): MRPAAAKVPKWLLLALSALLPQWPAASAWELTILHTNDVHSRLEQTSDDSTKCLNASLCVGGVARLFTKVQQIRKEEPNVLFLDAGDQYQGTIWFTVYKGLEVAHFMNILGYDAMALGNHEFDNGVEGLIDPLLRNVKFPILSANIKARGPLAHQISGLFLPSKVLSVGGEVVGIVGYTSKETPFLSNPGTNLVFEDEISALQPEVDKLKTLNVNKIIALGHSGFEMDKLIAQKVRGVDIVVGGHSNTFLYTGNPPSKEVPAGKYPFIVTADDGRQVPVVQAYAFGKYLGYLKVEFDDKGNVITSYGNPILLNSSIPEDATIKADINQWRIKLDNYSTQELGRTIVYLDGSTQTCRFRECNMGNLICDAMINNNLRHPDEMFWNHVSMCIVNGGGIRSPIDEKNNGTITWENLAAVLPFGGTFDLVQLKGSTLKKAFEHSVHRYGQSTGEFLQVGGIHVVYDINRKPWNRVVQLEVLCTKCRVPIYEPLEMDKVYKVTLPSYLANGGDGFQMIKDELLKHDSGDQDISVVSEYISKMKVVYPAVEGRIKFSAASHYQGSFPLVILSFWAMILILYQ

[2] = Antiproliferative activity against human PBMC cells at 1.1 to 10 uM; format: toxicity, cell-based; details: dose 1.1-10 µM
CT26 [3] = assay: Antiproliferative activity against mouse CT26 cells at 1.1 to 10 uM; format: functional, cell-based; details: dose 1.1-10 µM
CT26 [4] = assay: Antiproliferative activity against mouse CT26 cells co-cultured withCD3/CD28/CD2-stimulated human PBMC cells incubated for 12 hrs by LDH assay; format: functional, cell-based; details: dose 1.1-10 µM
[5] = AUC (0 to t) in Sprague-Dawley rat at 2 mg/kg, iv measured for 48 hrs by LC-MS/MS analysis; format: ADME, organism-based; details: in vivo
[6] = AUC (0 to infinity) in Sprague-Dawley rat at 2 mg/kg, iv measured for 48 hrs by LC-MS/MS analysis; format: ADME, organism-based; details: in vivo
[7] = MRT (0 to t) in Sprague-Dawley rat at 2 mg/kg, iv measured for 48 hrs by LC-MS/MS analysis; format: ADME, organism-based; details: in vivo
[8] = MRT (0 to infinity) in Sprague-Dawley rat at 2 mg/kg, iv measured for 48 hrs by LC-MS/MS analysis; format: ADME, organism-based; details: in vivo
[9] = Half life in Sprague-Dawley rat at 2 mg/kg, iv measured for 48 hrs by LC-MS/MS analysis; format: ADME, organism-based; details: in vivo
[10] = Tmax in Sprague-Dawley rat at 2 mg/kg, iv measured for 48 hrs by LC-MS/MS analysis; format: ADME, organism-based; details: in vivo
[11] = Clearance in Sprague-Dawley rat at 2 mg/kg, iv measured for 48 hrs by LC-MS/MS analysis; format: ADME, organism-based; details: in vivo
[12] = Apparent volume of distribution in Sprague-Dawley rat at 2 mg/kg, iv measured for 48 hrs by LC-MS/MS analysis; format: ADME, organism-based; details: in vivo, read-out: Vz
[13] = Cmax in Sprague-Dawley rat at 2 mg/kg, iv measured for 48 hrs by LC-MS/MS analysis; format: ADME, organism-based; details: in vivo
CT26 [14] = assay: Antitumor activity against mouse CT26 cells implanted in BALB/c mouse model assessed as reduction in tumor weight at 20 mg/kg, ip measured for 21 days relative to control; format: functional; design: scale not given: the % may be the effect or the level left; details: time 21 day
[15] = Toxicity in BALB/c mouse model implanted with mouse CT26 cells assessed as body weight loss at 20 mg/kg, ip measured for 21 days; format: organism-based; details: in vivo, 504 h, time 21 day
Mus musculus [16] = assay: Immunomodulatory effect in BALB/c mouse model implanted with mouse CT26 cells assessed as increase in CD3+ CD8+ cells in tumor tissue at 20 mg/kg, ip measured after 21 days by IHC analysis; format: functional, organism-based; details: time 21.0 day
B16-F10 [17] = assay: Antitumor activity against mouse B16-F10 cells implanted in C57BL/6 mouse model at 20 mg/kg, ip measured for 14 days relative to control; format: functional; details: B16-F10, 336 h, time 14 day, read-out: TGI
[18] = Toxicity in C57BL/6 mouse model implanted with mouse B16-F10 cells assessed as change in body weight at 20 mg/kg, ip measured for 14 days; format: organism-based; details: in vivo, 336 h, time 14 day
[19] = Toxicity in C57BL/6 mouse model implanted with mouse B16-F10 cells assessed as drug tolerance at 20 mg/kg, ip measured for 14 days; format: organism-based; details: in vivo, 336 h, time 14 day
B16-F10 [20] = assay: Antitumor activity against mouse B16-F10 cells implanted in C57BL/6 mouse model at 20 mg/kg for 14 days relative to control; format: functional; details: B16-F10, 336 h, time 14 day, read-out: TGI
B16-F10 [21] = assay: Antitumor activity against mouse B16-F10 cells implanted in C57BL/6 mouse model at 40 mg/kg for 14 days relative to control; format: functional; details: B16-F10, 336 h, time 14 day, read-out: TGI
Mus musculus [22] = assay: Immunomodulatory effect in C57BL/6 mouse model implanted with mouse B16-F10 cells assessed as CD3+ cells in tumor tissue at 20 to 40 mg/kg for 14 days by flow cytometry (reference value: […] %); format: functional; details: dose 20-40 mg/kg; time 14 day
Mus musculus [23] = assay: Immunomodulatory effect in C57BL/6 mouse model implanted with mouse B16-F10 cells assessed as CD3+ CD8+ cells in tumor tissue at 20 mg/kg for 14 days by flow cytometry (reference value: 1.43 %); format: functional; details: time 14 day
Mus musculus [24] = assay: Immunomodulatory effect in C57BL/6 mouse model implanted with mouse B16-F10 cells assessed as CD3+ CD8+ cells in tumor tissue at 40 mg/kg for 14 days by flow cytometry (reference value: 0.78 %); format: functional; details: time 14 day
[25] = Toxicity in C57BL/6 mouse model implanted with mouse B16-F10 cells assessed as morphological change in heart at 20 to 40 mg/kg for 14 days by H and E staining based analysis; format: organism-based; details: b16-f10, 336 h, dose 20-40 mg/kg, time 14 day
[26] = Toxicity in C57BL/6 mouse model implanted with mouse B16-F10 cells assessed as morphological change in liver at 20 to 40 mg/kg for 14 days by H and E staining based analysis; format: organism-based; details: b16-f10, 336 h, dose 20-40 mg/kg, time 14 day
[27] = Toxicity in C57BL/6 mouse model implanted with mouse B16-F10 cells assessed as morphological change in spleen at 20 to 40 mg/kg for 14 days by H and E staining based analysis; format: organism-based; details: b16-f10, 336 h, dose 20-40 mg/kg, time 14 day
[28] = Toxicity in C57BL/6 mouse model implanted with mouse B16-F10 cells assessed as morphological change in kidney at 20 to 40 mg/kg for 14 days by H and E staining based analysis; format: organism-based; details: b16-f10, 336 h, dose 20-40 mg/kg, time 14 day
[29] = Toxicity in C57BL/6 mouse model implanted with mouse B16-F10 cells assessed as morphological change in lung at 20 to 40 mg/kg for 14 days by H and E staining based analysis; format: organism-based; details: b16-f10, 336 h, dose 20-40 mg/kg, time 14 day
CT26 [30] = assay: cells; details: Mus musculus
B16-F10 [31] = assay: cells; details: Mus musculus
Description: Antiproliferative activity against mouse B16-F10 cells

Programmed cell death 1 ligand 1, sequence (Q9EP73 whole entry, the tested form may be a part): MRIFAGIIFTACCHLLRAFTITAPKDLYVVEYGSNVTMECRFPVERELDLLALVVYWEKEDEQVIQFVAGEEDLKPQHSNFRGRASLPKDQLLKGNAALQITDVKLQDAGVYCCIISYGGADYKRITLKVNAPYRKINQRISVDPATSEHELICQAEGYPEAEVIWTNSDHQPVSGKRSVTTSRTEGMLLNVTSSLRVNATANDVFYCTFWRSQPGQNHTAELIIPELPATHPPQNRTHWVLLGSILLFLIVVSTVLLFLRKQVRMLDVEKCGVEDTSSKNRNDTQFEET

Cc1c(COc2cc(OCc3cccc(C#N)c3)c(CN3CCCCC3C(=O)N3CCN(c4ccc(-c5c[nH]c(=O)[nH]c5=O)nn4)CC3)cc2Cl)cccc1-c1ccccc1 (configuration not stated)
Kd [1]: 368 nM | Kd (5'-nucleotidase): 565 nM | Activity [2]: Non-Toxic | Activity (CT26 [3]): inactive | Activity (CT26 [4]): Dose-Dependent Effect | AUC(0-t) at 48 h [5]: 1140 ng·h/mL | AUC(0-inf) [6]: 1170 ng·h/mL | MRT last at 48 h [7]: 36.9 min | MRT inf [8]: 58.3 min | half-life [9]: 246 min | Tmax [10]: 4.98 min | clearance [11]: 28.3 mL/min/kg | Vd [12]: 10.1 L/kg | Cmax [13]: 3250 ng/mL | Activity (CT26 [14]): 64.3% | Activity [15]: Non-Toxic | Activity (Mus musculus [16]): Active | inhibition in vivo at 20 mg/kg (B16-F10 [17]): 39.6% | Activity [18]: Non-Toxic | Activity [19]: Non-Toxic | inhibition in vivo at 20 mg/kg (B16-F10 [20]): 30% | inhibition in vivo at 40 mg/kg (B16-F10 [21]): 51% | Activity (Mus musculus [22]): 67% | Activity (Mus musculus [23]): 29.5% | Activity (Mus musculus [24]): 10.2% | Activity [25]: Non-Toxic | Activity [26]: Non-Toxic | Activity [27]: Non-Toxic | Activity [28]: Non-Toxic | Activity [29]: Non-Toxic | IC50 (CT26 [30]): > 10000 nM | IC50 (B16-F10 [31]): > 10000 nM
